Laboratory results reported in patent US20260070945A1, “MACROCYCLIC IMMUNOMODULATORS” (Bristol-Myers Squibb Company, priority 2022, published 2026).
*1 amine or outer side, *2 acyl side, *3 side chain or, on linkers, in order; H or OH if unused. Where a SMILES comes first, the peptide text is derived from it. Bridges are numbered along the chain shown (N, C = ends). [ ]: non-standard residue; d: D form. The star is where a group is joined. ξ: configuration not given here. Phe(4-COOH) = N[C@@H](Cc1ccc(C(=O)O)cc1)C(=O)O; Bip = N[C@@H](Cc1ccc(-c2ccccc2)cc1)C(=O)O; NH(CH2)14COOH = O=C(O)CCCCCCCCCCCCCCN*; Phe(3-Me) = Cc1cccc(C[C@H](N)C(=O)O)c1; NH(CH2)12COOH = O=C(O)CCCCCCCCCCCCN*; Val(3-OH) = CC(C)(O)[C@H](N)C(=O)O; X14 = O=C([C@H](CCCCO)N[*:1])[*:2]; hArg = N=C(N)NCCCC[C@H](N)C(=O)O; 4Pal = N[C@@H](Cc1ccncc1)C(=O)O; Cha = N[C@@H](CC1CCCCC1)C(=O)O; Thr(3ξ) = CC(O)[C@H](N)C(=O)O; CH2COCH2 = O=C(C[*:1])C[*:2]; 12Ado = NCCCCCCCCCCCC(=O)O; Carboxymethyl = O=C(O)C*; NMeA = CN[C@@H](C)C(=O)O; Orn = NCCC[C@H](N)C(=O)O; Aun = NCCCCCCCCCCC(=O)O; Dab = NCC[C@H](N)C(=O)O; Abu = CC[C@H](N)C(=O)O; Dap = NC[C@H](N)C(=O)O; AEEA = NCCOCCOCC(=O)O

Biological target: T1, PD-1/PD-L1 interaction (PE-labeled human PD-L1-Ig binding to Jurkat cell line over-expressing human PD-1) (Homo sapiens, UniProt Q15116)
T1 construct: expressed in transfected cells; host or cells: Jurkat
T1 sequence (Q15116 25-288): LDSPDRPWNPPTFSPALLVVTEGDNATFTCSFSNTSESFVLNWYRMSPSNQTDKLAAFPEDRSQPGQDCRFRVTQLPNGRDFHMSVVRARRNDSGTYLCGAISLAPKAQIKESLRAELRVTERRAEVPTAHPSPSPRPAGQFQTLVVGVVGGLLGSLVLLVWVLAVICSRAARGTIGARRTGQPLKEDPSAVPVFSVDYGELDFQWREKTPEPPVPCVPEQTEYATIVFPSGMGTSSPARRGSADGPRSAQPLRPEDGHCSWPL
Test: Jurkat-PD-1 Cell Binding High-Content Screening Assay (CBA)
Conditions: Jurkat-hPD-1 cells, PE-labeled PD-L1-Ig 20 nM final; read-out: Jurkat HPD1 PDL1 IC50
In short: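 Jurkat cells overexpressing human PD-1 (8×10^3/well, DMEM + 10% FCS) preincubated with compound 2 h at 37 °C, then PE-labelled human PD-L1-Ig (20 nM final) for 1 h. Cells fixed in paraformaldehyde with Hoechst 33342; bound PD-L1 quantified by high-content imaging.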

| IC50 | Compound |
| --- | --- |
| 4.8 nM | CC(=O)NCCCC[C@@H]1NC(=O)[C@H](Cc2ccc(-c3ccccc3)cc2)NC(=O)[C@H](CC(C)C)NC(=O)[C@H](Cc2c[nH]c3ccccc23)NC(=O)[C@H](CC(=O)O)NC(=O)[C@H](Cc2ccc(C(=O)O)cc2)NC(=O)[C@H](Cc2ccc(OCC(=O)O)cc2)NC(=O)CSC[C@@H](C(=O)NCCOCCOCC(=O)NCCCCCCCCCCC(=O)O)NC(=O)[C@H](CO)NC(=O)[C@H](C(C)C)NC(=O)[C@H](CC2CCCCC2)NC(=O)[C@H](CCN)NC(=O)[C@@H](CC(C)C)NC(=O)[C@H](C)N(C)C1=O [Example 2229] ({CH2CO}-Y(Carboxymethyl)[Phe(4-COOH)]DWL[Bip]K(Ac)[NMeA][dL][Dab][Cha]VSC[AEEA][Aun]-OH; thioether N-14) |
| 223 nM | CC(C)C[C@@H]1NC(=O)[C@H](Cc2c[nH]c3ccccc23)NC(=O)[C@H](CC(=O)O)NC(=O)[C@H](Cc2ccc(C(=O)O)cc2)NC(=O)[C@H](C(C)O)NC(=O)CSC[C@@H](C(=O)N[C@@H](C)C(=O)N[C@@H](CCN)C(=O)NCCCCCCCCCCCCCCC(=O)O)NC(=O)[C@H](CO)NC(=O)[C@H](C(C)C)NC(=O)[C@H](CC2CCCCC2)NC(=O)[C@H](CCN)NC(=O)[C@@H](CC(C)C)NC(=O)[C@H](C)N(C)C(=O)[C@H](C(C)C)NC(=O)[C@H](Cc2ccc(-c3ccccc3)cc2)NC1=O (stereo partly drawn) [Example 2005] ({CH2CO}-[Thr(3ξ)][Phe(4-COOH)]DWL[Bip]V[NMeA][dL][Dab][Cha]VSCA[Dab]-{NH(CH2)14COOH}; thioether N-14) |
| 207 nM | Cc1cccc(C[C@@H]2NC(=O)[C@H](CC(=O)O)NC(=O)[C@H](Cc3ccncc3)NC(=O)[C@H](Cc3ccc(OCC(=O)O)cc3)NC(=O)CSC[C@@H](C(=O)N[C@@H](CCN)C(=O)NCCOCCOCC(=O)NCCCCCCCCCCC(=O)O)NC(=O)[C@H](CO)NC(=O)[C@H](C(C)(C)O)NC(=O)[C@H](CC3CCCCC3)NC(=O)[C@H](CCN)NC(=O)[C@@H](CC(C)C)NC(=O)[C@H](C)N(C)C(=O)[C@H](Cc3ccc(OCC(=O)O)cc3)NC(=O)[C@H](Cc3ccc(-c4ccccc4)cc3)NC(=O)[C@H](Cc3ccc(OCC(=O)O)cc3)NC2=O)c1 [Example 1412] ({CH2CO}-Y(Carboxymethyl)[4Pal]D[Phe(3-Me)]Y(Carboxymethyl)[Bip]Y(Carboxymethyl)[NMeA][dL][Dab][Cha][Val(3-OH)]SC[Dab][AEEA][Aun]-OH; thioether N-14) |
| 11.1 nM | Cc1cccc(C[C@@H]2NC(=O)[C@H](CC(=O)O)NC(=O)[C@H](Cc3ccc(OCC(=O)O)cc3)NC(=O)[C@H](Cc3ccncc3)NC(=O)CSC[C@@H](C(=O)N[C@@H](CCN)C(=O)NCCCCCCCCCCC(=O)O)NC(=O)[C@H](CO)NC(=O)[C@H](CO)NC(=O)[C@H](CC3CCCCC3)NC(=O)[C@H](CCN)NC(=O)[C@@H](CC(C)C)NC(=O)[C@H](C)N(C)C(=O)[C@H](Cc3ccc(OCC(=O)O)cc3)NC(=O)[C@H](Cc3ccc(-c4ccccc4)cc3)NC(=O)[C@H](Cc3ccc(OCC(=O)O)cc3)NC2=O)c1 [Example 2454] ({CH2CO}-[4Pal]Y(Carboxymethyl)D[Phe(3-Me)]Y(Carboxymethyl)[Bip]Y(Carboxymethyl)[NMeA][dL][Dab][Cha]SSC[Dab][Aun]-OH; thioether N-14) |
| 17 nM | CC[C@@H]1NC(=O)[C@H](C(C)C)NC(=O)[C@H](CC2CCCCC2)NC(=O)[C@H](CCN)NC(=O)[C@@H](CC(C)C)NC(=O)[C@H](C)N(C)C(=O)[C@H](C(C)C)NC(=O)[C@H](Cc2ccc(-c3ccccc3)cc2)NC(=O)[C@H](CC(C)C)NC(=O)[C@H](Cc2c[nH]c3ccccc23)NC(=O)[C@H](CC(=O)O)NC(=O)[C@H](Cc2ccc(OCC(=O)O)cc2)NC(=O)[C@H](CCCCNC(=N)N)NC(=O)CSC[C@@H](C(=O)NCC(=O)NCCOCCOCC(=O)N[C@@H](CCCN)C(=O)NCCCCCCCCCCCC(=O)O)NC1=O [Example 2124] ({CH2CO}-[hArg]Y(Carboxymethyl)DWL[Bip]V[NMeA][dL][Dab][Cha]V[Abu]CG[AEEA][Orn][12Ado]-OH; thioether N-14) |
| 11.9 nM | CC(=O)COc1ccc(C[C@@H]2NC(=O)[C@H](CCCNC(=N)N)NC(=O)CSC[C@@H](C(=O)N[C@@H](CCN)C(=O)NCCCCCCCCCCC(=O)O)NC(=O)[C@H](C(C)O)NC(=O)[C@H](C(C)C)NC(=O)[C@H](CC3CCCCC3)NC(=O)[C@H](CCN)NC(=O)[C@@H](CC(C)C)NC(=O)[C@H](C)N(C)C(=O)[C@H](Cc3ccc(OCC(=O)O)cc3)NC(=O)[C@H](Cc3ccc(-c4ccccc4)cc3)NC(=O)[C@H](CC(C)C)NC(=O)[C@H](Cc3cccc(C)c3)NC(=O)[C@H](CC(=O)O)NC2=O)cc1 (stereo partly drawn) [Example 2253] ({CH2CO}-RY(CH2COCH2)D[Phe(3-Me)]L[Bip]Y(Carboxymethyl)[NMeA][dL][Dab][Cha]V[Thr(3ξ)]C[Dab][Aun]-OH; thioether N-14) |
| 47.9 nM | Cc1cccc(C[C@@H]2NC(=O)[C@H](CC(=O)O)NC(=O)[C@H](Cc3ccc(OCC(=O)O)cc3)NC(=O)[C@H](CN)NC(=O)CSC[C@@H](C(=O)NCC(=O)N[C@@H](CCC(=O)O)C(=O)NCCCCCCCCCCC(=O)O)NC(=O)[C@H](CO)NC(=O)[C@H](C(C)C)NC(=O)[C@H](CC(C)C)NC(=O)[C@H](CC(N)=O)NC(=O)[C@@H](CC(C)C)NC(=O)[C@H](C)N(C)C(=O)[C@H](C(C)C)NC(=O)[C@H](Cc3ccc(-c4ccccc4)cc3)NC(=O)[C@H](CC(C)C)NC2=O)c1 [Example 1060] ({CH2CO}-[Dap]Y(Carboxymethyl)D[Phe(3-Me)]L[Bip]V[NMeA][dL]NLVSCGE[Aun]-OH; thioether N-14) |
| 6.8 nM | CC(C)C[C@@H]1NC(=O)[C@H](Cc2c[nH]c3ccccc23)NC(=O)[C@H](CC(=O)O)NC(=O)[C@H](Cc2ccncc2)NC(=O)[C@H](Cc2ccc(OCC(=O)O)cc2)NC(=O)CSC[C@@H](C(=O)N[C@@H](CCCCN)C(=O)NCCOCCOCC(=O)NCCCCCCCCCCC(=O)O)NC(=O)[C@H](CO)NC(=O)[C@H](C(C)C)NC(=O)[C@H](CC2CCCCC2)NC(=O)[C@H](CCN)NC(=O)[C@@H](CC(C)C)NC(=O)[C@H](C)N(C)C(=O)[C@H](C(C)C)NC(=O)[C@H](Cc2ccc(-c3ccccc3)cc2)NC1=O [Example 1091] ({CH2CO}-Y(Carboxymethyl)[4Pal]DWL[Bip]V[NMeA][dL][Dab][Cha]VSCK[AEEA][Aun]-OH; thioether N-14) |
| 14.4 nM | Cc1cccc(C[C@@H]2NC(=O)[C@H](CC(=O)O)NC(=O)[C@H](Cc3ccc(C(=O)O)cc3)NC(=O)[C@H](Cc3ccc(OCC(=O)O)cc3)NC(=O)CSC[C@@H](C(=O)NCCOCCOCC(=O)NCCCCCCCCCCC(=O)O)NC(=O)[C@H](CCCCO)NC(=O)[C@H](C(C)C)NC(=O)[C@H](CC3CCCCC3)NC(=O)[C@H](CCN)NC(=O)[C@@H](CC(C)C)NC(=O)[C@H](C)N(C)C(=O)[C@H](Cc3ccc(O)cc3)NC(=O)[C@H](Cc3ccc(-c4ccccc4)cc3)NC(=O)[C@H](C(C)C)NC2=O)c1 [Example 2213] ({CH2CO}-Y(Carboxymethyl)[Phe(4-COOH)]D[Phe(3-Me)]V[Bip]Y[NMeA][dL][Dab][Cha]V[X14]C[AEEA][Aun]-OH; thioether N-14) |

Same assay, conditions: PE-labeled PD-L1-Ig 20 nM final, Jurkat-hPD-1 cells; read-out: Jurkat HPD1 PDL1 IC50

| IC50 | Compound |
| --- | --- |
| 23.6 nM | CC(=O)NCCCC[C@@H]1NC(=O)[C@H](C(C)(C)O)NC(=O)[C@H](CC2CCCCC2)NC(=O)[C@H](CCN)NC(=O)[C@@H](CC(C)C)NC(=O)[C@H](C)N(C)C(=O)[C@H](Cc2ccc(OCC(=O)O)cc2)NC(=O)[C@H](Cc2ccc(-c3ccccc3)cc2)NC(=O)[C@H](Cc2ccc(OCC(=O)O)cc2)NC(=O)[C@H](Cc2cccc(C)c2)NC(=O)[C@H](CC(=O)O)NC(=O)[C@H](Cc2ccc(OCC(=O)O)cc2)NC(=O)[C@H](C(C)O)NC(=O)CSC[C@@H](C(=O)N[C@@H](CCN)C(=O)NCCOCCOCC(=O)N[C@@H](CCC(=O)NCCCCCCCCCCCCC(=O)O)C(=O)O)NC1=O (stereo partly drawn) [Example 2658] ({CH2CO}-[Thr(3ξ)]Y(Carboxymethyl)D[Phe(3-Me)]Y(Carboxymethyl)[Bip]Y(Carboxymethyl)[NMeA][dL][Dab][Cha][Val(3-OH)]K(Ac)C[Dab][AEEA]E(NH(CH2)12COOH)-OH; thioether N-14) |
| 1.2 nM | Cc1cccc(C[C@@H]2NC(=O)[C@H](CC(=O)O)NC(=O)[C@H](Cc3ccc(OCC(=O)O)cc3)NC(=O)[C@H]([C@@H](C)O)NC(=O)CSC[C@@H](C(=O)N[C@@H](CCN)C(=O)NCCOCCOCC(=O)NCCCCCCCCCCCC(=O)O)NC(=O)[C@H](CCC(=O)O)NC(=O)[C@H](C(C)C)NC(=O)[C@H](CC3CCCCC3)NC(=O)[C@H](CCN)NC(=O)[C@@H](CC(C)C)NC(=O)[C@H](C)N(C)C(=O)[C@H](Cc3ccc(O)cc3)NC(=O)[C@H](Cc3ccc(-c4ccccc4)cc3)NC(=O)[C@H](Cc3ccc(OCC(=O)O)cc3)NC2=O)c1 [Example 2665] ({CH2CO}-TY(Carboxymethyl)D[Phe(3-Me)]Y(Carboxymethyl)[Bip]Y[NMeA][dL][Dab][Cha]VEC[Dab][AEEA][12Ado]-OH; thioether N-14) |
| 17.5 nM | Cc1cccc(C[C@@H]2NC(=O)[C@H](CC(=O)O)NC(=O)[C@H](Cc3ccc(OCC(=O)O)cc3)NC(=O)[C@H](CCN)NC(=O)CSC[C@@H](C(=O)N[C@@H](CCN)C(=O)NCCOCCOCC(=O)NCCCCCCCCCCC(=O)O)NC(=O)[C@H](Cc3cnc[nH]3)NC(=O)[C@H](C(C)(C)O)NC(=O)[C@H](CC3CCCCC3)NC(=O)[C@H](CCN)NC(=O)[C@@H](CC(C)C)NC(=O)[C@H](C)N(C)C(=O)[C@H](Cc3ccc(OCC(=O)O)cc3)NC(=O)[C@H](Cc3ccc(-c4ccccc4)cc3)NC(=O)[C@H](Cc3ccc(OCC(=O)O)cc3)NC2=O)c1 [Example 2551] ({CH2CO}-[Dab]Y(Carboxymethyl)D[Phe(3-Me)]Y(Carboxymethyl)[Bip]Y(Carboxymethyl)[NMeA][dL][Dab][Cha][Val(3-OH)]HC[Dab][AEEA][Aun]-OH; thioether N-14) |
